# In patent US5357044A, “Cecropins fusion proteins” (Xoma Corporation, priority 1993, dated 1994):
# Ends that are not written are not given here.
# How the values were obtained:
# Bacillus megaterium = details: background art; cited from earlier work
# E. coli = details: background art; cited from earlier work
# [1] = system: eight other species of bacteria; details: background art; cited from earlier work
# Erwinia carotovora EC = assay: Bactericidal agar-well halo assay, Erwinia carotovora EC; type: cell-based
# Experimental: (§1) Agar plates (8 cm in diameter) were prepared with 6 ml of TYE medium containing about 10^7 viable cells of test organism. Wells, 2 mm diameter, were punched in the plates. The test material was dissolved in 50 mM phosphate buffer (pH 6.6) and 3 ul was applied to each well. The diameters of the inhibition zones, or halos, around the wells were measured after overnight incubation at 25° C. To determine a standard of halo formation, CA 1-33 protein was used. 1 ug and 3 ug of CA 1-33 in well applications caused halos with diameters of 8 mm and 11 mm respectively, on media infused with E. coli strain JF568. 10 ug and 30 ug of cyanogen bromide-digested pCA3A araB-CA fusion protein caused halos with diameters 7 mm and 18 mm respectively.
# (§2) Cyanogen bromide-digested fusion protein fractionated by HPLC was also applied to this assay. […] Other bacterial and yeast strains were also tested in this assay. Cyanogen bromide-digested and undigested fusion protein samples were applied in the amounts described above in the testing of E. coli strain JF568, and the resulting halo diameters were measured.
# E. coli 5506 = assay: Bactericidal agar-well halo assay, E. coli 5506; type: cell-based
# Experimental: as §1, §2
# Salmonella derby = assay: Bactericidal agar-well halo assay, Salmonella derby; type: cell-based
# Experimental: as §1, §2
# Streptococcus faecalis = assay: Bactericidal agar-well halo assay, Streptococcus faecalis; type: cell-based; details: ampicillin 750 ng
# Experimental: as §1, §2
# E. coli 5506 DR = assay: Bactericidal agar-well halo assay, E. coli 5506 DR; type: cell-based
# Experimental: as §1, §2
# Pseudomonas PS-9 = assay: Bactericidal agar-well halo assay, Pseudomonas PS-9; type: cell-based; details: CNBr-digested fusion protein isolate 5 ug
# Experimental: as §1, §2
# Serratia marcesens = assay: Bactericidal agar-well halo assay, Serratia marcesens; type: cell-based; details: CNBr-digested fusion protein isolate 5 ug
# Experimental: as §1, §2
# Xenohabdus nematophillus = assay: Bactericidal agar-well halo assay, Xenohabdus nematophillus; type: cell-based; details: CNBr-digested fusion protein isolate 5 ug
# Experimental: Cyanogen bromide-digested fusion protein fractionated by HPLC was also applied to this assay. […] Cyanogen bromide-digested and undigested fusion protein samples were applied in the amounts described above in the testing of E. coli strain JF568, and the resulting halo diameters were measured.
# Klebsiella pneumoniae = assay: Bactericidal agar-well halo assay, Klebsiella pneumoniae; type: cell-based; details: CNBr-digested fusion protein isolate 5 ug
# Experimental: as §1, §2
# [2] = CNBr-digested fusion protein isolate 5 ug
compound,measurement,setting,value
cecropin D,sensitivity of the bacterium to the cecropin,Bacillus megaterium,relatively resistant
same,activity against E. coli relative to cecropins A and B,E. coli,almost as much activity
same,activity against eight other species of bacteria,[1],significantly reduced activity
"CC1(C)S[C@@H]2[C@H](NC(=O)[C@H](N)c3ccccc3)C(=O)N2[C@H]1C(=O)O [Ampicillin, ampicillin]",Halo Activity in Millimeters,Erwinia carotovora EC; ampicillin 750 ng,6.5 Millimeters
same,Halo Activity in Millimeters,E. coli 5506; ampicillin 750 ng,4.5 Millimeters
same,Halo Activity in Millimeters,Salmonella derby; ampicillin 750 ng,6.0 Millimeters
same,Halo Activity in Millimeters,Streptococcus faecalis,7.0 Millimeters
same,Halo Activity in Millimeters,E. coli 5506 DR; ampicillin 750 ng,4.5 Millimeters
"cecropin A: natural antibacterial peptide purified from immune hemolymph of the Cecropia moth (KWKLFKKIEKVGQNIRDGIIKAGPAVAVVGQATQIAK; UniProt P01507 27-63, looked up)",sensitivity of the bacterium to the cecropin,Bacillus megaterium,highly sensitive
"pCA3D: CNBr-digested araB-CA fusion protein isolate from E. coli carrying plasmid pCA3D; releases wild type cecropin A (KWKLFKKIEKVGQNIRDGIIKAGPAVAVVGQATQIAK; ends and bridges not checked; UniProt P01507 27-63, looked up)",Halo Activity in Millimeters,Pseudomonas PS-9,2.0 Millimeters
same,Halo Activity in Millimeters,Serratia marcesens,1.0 Millimeters
same,Halo Activity in Millimeters,Xenohabdus nematophillus,2.75 Millimeters
same,Halo Activity in Millimeters,Erwinia carotovora EC; [2],4.75 Millimeters
same,Halo Activity in Millimeters,Klebsiella pneumoniae,4.5 Millimeters
same,Halo Activity in Millimeters,E. coli 5506; [2],5.0 Millimeters
same,Halo Activity in Millimeters,Salmonella derby; [2],5.0 Millimeters
same,Halo Activity in Millimeters,E. coli 5506 DR; [2],6.5 Millimeters
"cecropin B: natural antibacterial peptide purified from immune hemolymph; sequence shown in b10 (KWKVFKKIEKMGRNIRNGIVKAGPAIAVLGEAKAL; UniProt P01508 27-61, looked up)",sensitivity of the bacterium to the cecropin,Bacillus megaterium,highly sensitive
